Here are results for 23 compounds from US4499303A, “Antihyperlipidemic N-benzoylsulfamates, N-benzylsulfamates and benzylsulfonamides” (Research Corporation, priority 1983, dated 1985).

Common to all, as to format: in vivo
Assay [1] has as its system Serum Cholesterol. Nature of the assay: Antihyperlipidemic effect in CF1 male mice: serum cholesterol. The settings on record: for response vs control in vivo at 20 mg/kg: Mus musculus, ip; for antihypercholesteremic activity (in words): mice, compared with others of Table I.
The next assay concerns Serum Triglycerides. Put plainly: Antihyperlipidemic effect in CF1 male mice: serum triglycerides. The settings on record: for response vs control in vivo at 20 mg/kg: Mus musculus, ip, 384 h; for response vs control in vivo at 20 mg/kg / Serum Triglycerides, Day 16: 20 mg/kg/day I.P., CF1 male mice, N = 6, Day 16; for antihypertriglyceridemic activity (in words): mice, compared with others of Table I. The procedure:
Serum triglycerides were assayed using the commercially available Bio-Dynamics/bmc Triglyceride Kit on blood collected on the 16th day. By comparison to standards, the mg% of cholesterol and mg/dl of triglycerides were calculated. Treated values are expressed as percent of control.

Assay [2] relates to normal and hyperlipidemic mice. Nature of the assay: Hypolipidemic effect in normal and hyperlipidemic mice, oral and intraperitoneal. The settings on record: orally and intraperitoneally.
The subject of the next assay is triglyceride levels. Nature of the assay: Hypolipidemic effect in rodents at 60 mg/kg/day: triglycerides. How it is done: Of the series of compounds tested thus far, N-(p-chlorobenzoyl)-sulfamate and (o-chlorobenzyl)-sulfonamide appear to be of the most interest. N-(p-chlorobenzoyl)-sulfamic acid sodium salt at 20 mg/kg/day, I.P. lowered serum cholesterol levels 48% and serum triglyceride levels 45% after 16 days dosing.

In assay [3] the test system is serum cholesterol. Put plainly: Hypolipidemic effect in rodents at 60 mg/kg/day: serum cholesterol. An excerpt:
Of the series of compounds tested thus far, N-(p-chlorobenzoyl)-sulfamate and (o-chlorobenzyl)-sulfonamide appear to be of the most interest. […]

The mark [4] stands for this setting: 216 h, 20 mg/kg/day I.P., CF1 male mice, N = 6, Day 9, read-out: Serum Cholesterol, Day 9.
[5] abbreviates: 384 h, 20 mg/kg/day I.P., CF1 male mice, N = 6, Day 16, read-out: Serum Cholesterol, Day 16.
[6] abbreviates: 20 mg/kg/day, I.P., after 16 days dosing, lowering.

“Also recorded” adds a separate entry of the source. Read-outs that look alike come from different tables or passages of the source.

Turning to `CCOC(=O)C(C)(C)Oc1ccc(Cl)cc1` [Clofibrate, reference compound], the results for the response vs control in vivo at 20 mg/kg in the assay on Serum Cholesterol [1] (setting [4]), with Serum Cholesterol [1] (setting [5]) and with Serum Triglycerides were 98 ± 7%, 97 ± 9% and 95 ± 7%, respectively.

As to `COc1ccc(C(=O)NS(=O)(=O)O)cc1` [Compound 1], the response vs control in vivo at 20 mg/kg amounted to 63 ± 6% in the assay with Serum Cholesterol [1] (setting [4]), 60 ± 7% with Serum Cholesterol [1] (setting [5]) and 65 ± 8% in the assay with Serum Triglycerides. Also, the “antihypercholesteremic activity (in words)” value with Serum Cholesterol [1] is given as “more active than saccharin in lowering serum cholesterol levels”. For the same compound, the “antihypertriglyceridemic activity (in words)” value in the assay on Serum Triglycerides was “less active in lowering triglyceride levels”.

As to `O=C(NS(=O)(=O)[O-])c1ccc(Cl)cc1.[Na+]` [Compound 2, N-(p-chlorobenzoyl)-sulfamic acid sodium salt], the “lowered serum cholesterol levels” value in the assay with Serum Cholesterol [1] (setting [6]) is 48%. Moreover, the response vs control in vivo at 20 mg/kg was determined as 57 ± 5% with Serum Cholesterol [1] (setting [4]); 52 ± 6% in the assay with Serum Cholesterol [1] (384 h, read-out: Serum Cholesterol, Day 16); 55 ± 7% in the assay on Serum Triglycerides. Also, the “antihypercholesteremic activity (in words)” value with Serum Cholesterol [1] is “more active than saccharin in lowering serum cholesterol levels”. Also, the “Serum Triglycerides, Day 16” value with Serum Triglycerides (listed as p--Cl, sodium salt) is 55±7 % Control. In the assay with Serum Triglycerides (setting [6]), the “lowered serum triglyceride levels” value stood at 45%. Further, the “antihypertriglyceridemic activity (in words)” value with Serum Triglycerides is “less active in lowering triglyceride levels”.

With `O=C(NS(=O)(=O)O)c1cccc(Cl)c1` [Compound 3], the response vs control in vivo at 20 mg/kg with Serum Cholesterol [1] (setting [4]) is 72 ± 5%; in the assay on Serum Cholesterol [1] (setting [5]), 64 ± 6%; with Serum Triglycerides it was 97 ± 7%. The “antihypercholesteremic activity (in words)” value in the assay on Serum Cholesterol [1] is on record as “more active than saccharin in lowering serum cholesterol levels”. In addition, the “antihypertriglyceridemic activity (in words)” value in the assay with Serum Triglycerides was “less active in lowering triglyceride levels”.

On to `O=C(NS(=O)(=O)O)c1ccccc1Cl` [Compound 4], for which the response vs control in vivo at 20 mg/kg with Serum Cholesterol [1] (setting [4]) was determined as 78 ± 6%; in the assay with Serum Cholesterol [1] (setting [5]) it was 51 ± 5%; in the assay with Serum Triglycerides it was 86 ± 8%. Besides, the “antihypercholesteremic activity (in words)” value in the assay on Serum Cholesterol [1] is reported as “more active than saccharin in lowering serum cholesterol levels”. Also, the “antihypertriglyceridemic activity (in words)” value in the assay with Serum Triglycerides is recorded as “less active in lowering triglyceride levels”.

As to `COc1cccc(C(=O)NS(=O)(=O)O)c1` [Compound 5], the results for the response vs control in vivo at 20 mg/kg in the assay on Serum Cholesterol [1] (setting [4]), in the assay on Serum Cholesterol [1] (setting [5]) and in the assay on Serum Triglycerides were 86 ± 7%, 72 ± 5% and 80 ± 7%, respectively.

For the compound `O=C(NS(=O)(=O)O)c1ccccc1` [Compound 7], the results for the response vs control in vivo at 20 mg/kg with Serum Cholesterol [1] (setting [4]), in the assay on Serum Cholesterol [1] (setting [5]) and with Serum Triglycerides were 74 ± 6%, 57 ± 5% and 70 ± 6%, respectively. In addition, the figures for the “antihypercholesteremic activity (in words)” value with Serum Cholesterol [1] and in the assay on Serum Cholesterol [1] (listed as unsubstituted prototype) were “more active than saccharin in lowering serum cholesterol levels” and “quite active”, respectively. For the same compound, the “antihypertriglyceridemic activity (in words)” value in the assay on Serum Triglycerides is “less active in lowering triglyceride levels”.

Take `O=C(NS(=O)(=O)O)c1ccc(Br)cc1` [Compound 8]: the figures for the response vs control in vivo at 20 mg/kg in the assay with Serum Cholesterol [1] (setting [4]), in the assay with Serum Cholesterol [1] (setting [5]) and with Serum Triglycerides were 75 ± 4%, 73 ± 7% and 88 ± 3%, respectively.

Consider `Cc1ccc(C(=O)NS(=O)(=O)O)cc1` [Compound 9], for which the response vs control in vivo at 20 mg/kg was found to be 70 ± 3% with Serum Cholesterol [1] (setting [4]), 63 ± 3% with Serum Cholesterol [1] (setting [5]) and 82 ± 4% in the assay with Serum Triglycerides.

As for `CC(=O)c1ccc(C(=O)NS(=O)(=O)O)cc1` [Compound 10], the response vs control in vivo at 20 mg/kg with Serum Cholesterol [1] (setting [4]) amounted to 95 ± 3%; with Serum Cholesterol [1] (setting [5]) it was 72 ± 4%; in the assay on Serum Triglycerides, 69 ± 6%.

Consider `CC(C)c1ccc(C(=O)NS(=O)(=O)O)cc1` [Compound 11], for which the response vs control in vivo at 20 mg/kg came to 90 ± 6% with Serum Cholesterol [1] (setting [4]), 77 ± 6% with Serum Cholesterol [1] (setting [5]) and 49 ± 8% in the assay on Serum Triglycerides. Moreover, the “Serum Triglycerides, Day 16” value in the assay with Serum Triglycerides (listed as p-isopropyl derivative) is on record as 49±8 % Control.

As to `COc1ccc(CNS(=O)(=O)O)cc1` [Compound 12], the response vs control in vivo at 20 mg/kg in the assay with Serum Cholesterol [1] (setting [4]) worked out at 88 ± 4%; in the assay on Serum Cholesterol [1] (setting [5]), 87 ± 2%; with Serum Triglycerides, 91 ± 9%.

With `O=S(=O)(O)NCc1ccccc1` [Compound 13], the response vs control in vivo at 20 mg/kg in the assay with Serum Cholesterol [1] (setting [4]) was 94 ± 7%; in the assay with Serum Cholesterol [1] (setting [5]), 88 ± 2%; in the assay with Serum Triglycerides it was 97 ± 8%.

On to `O=S(=O)(O)NCc1ccccc1Cl` [Compound 14], for which the values for the response vs control in vivo at 20 mg/kg with Serum Cholesterol [1] (setting [4]), with Serum Cholesterol [1] (setting [5]) and in the assay with Serum Triglycerides were 84 ± 8%, 78 ± 2% and 75 ± 2%, respectively. Besides, the “antihypertriglyceridemic activity (in words)” value in the assay with Serum Triglycerides is given as “increased antihyertriglyceridemic activity compared to N-benzoylsulfamate 4”.

As for `O=S(=O)(O)NCc1ccc(Cl)cc1` [Compound 15], the response vs control in vivo at 20 mg/kg in the assay with Serum Cholesterol [1] (setting [4]) was 94 ± 2%; in the assay on Serum Cholesterol [1] (setting [5]), 93 ± 4%; in the assay on Serum Triglycerides it was 79 ± 7%.

`NS(=O)(=O)Cc1ccccc1Cl` [Compound 16, (o-Chlorobenzyl)sulfonamide]: the “hypolipidemic activity (in words)” value in assay [2] was “effective both in normal and hyperlipidemic mice and is active both orally an intraperitonally”. The same compound came in with a reducing triglyceride levels in the assay on triglyceride levels of 49%. The response vs control in vivo at 20 mg/kg with Serum Cholesterol [1] (setting [4]) is 99 ± 8%; in the assay with Serum Cholesterol [1] (setting [5]), 73 ± 6%; in the assay with Serum Triglycerides, 52 ± 6%. For the same compound, the “antihypertriglyceridemic activity (in words)” value in the assay with Serum Triglycerides is “the most active antihypertriglyceridemics in the series”. Moreover, the “hypolipidemic agent in rodents (in words)” value in the assay on serum cholesterol [3] is listed as “potent hypolipidemic agent in rodents”. The “reducing serum cholesterol levels” value with serum cholesterol [3] (60/mg/kg/day) is on record as 71%.

For the compound `COc1ccccc1CS(N)(=O)=O` [Compound 17], the response vs control in vivo at 20 mg/kg with Serum Cholesterol [1] (setting [4]) worked out at 69 ± 4%; in the assay on Serum Cholesterol [1] (setting [5]) it was 68 ± 7%; in the assay on Serum Triglycerides, 58 ± 6%. Further, the “antihypercholesteremic activity (in words)” value with Serum Cholesterol [1] is on record as “the most active antihypercholesteremic, being equal in activity to saccharin”.

On to `COc1cccc(CS(N)(=O)=O)c1` [Compound 18], for which the response vs control in vivo at 20 mg/kg in the assay on Serum Cholesterol [1] (setting [4]) was 84 ± 6%. Moreover, the response vs control in vivo at 20 mg/kg in the assay on Serum Cholesterol [1] (setting [5]) is 79 ± 7%. Moreover, in the assay with Serum Triglycerides, the “Serum Triglycerides, Day 16” value is 42 % Control; the response vs control in vivo at 20 mg/kg was determined as 42 ± 4%; the “antihypertriglyceridemic activity (in words)” value was “more active than saccharin; also recorded: the most active antihypertriglyceridemics in the series”.

Take `COc1ccc(CS(N)(=O)=O)cc1` [Compound 19]: the response vs control in vivo at 20 mg/kg with Serum Cholesterol [1] (setting [4]) came out at 74 ± 8%; in the assay with Serum Cholesterol [1] (setting [5]) it was 70 ± 5%; in the assay with Serum Triglycerides, 76 ± 7%.

For the compound `NS(=O)(=O)Cc1ccccc1` [Compound 20], the response vs control in vivo at 20 mg/kg in the assay with Serum Cholesterol [1] (setting [4]) was 95 ± 8%. The response vs control in vivo at 20 mg/kg in the assay on Serum Cholesterol [1] (setting [5]) was determined as 75 ± 5%. Besides, in the assay on Serum Triglycerides, the “Serum Triglycerides, Day 16” value is on record as 42 % Control; the response vs control in vivo at 20 mg/kg was 42 ± 3%; the “antihypertriglyceridemic activity (in words)” value is reported as “more active than saccharin; also recorded: the most active antihypertriglyceridemics in the series”.

Consider `NS(=O)(=O)Cc1cccc(Cl)c1` [Compound 21], for which the response vs control in vivo at 20 mg/kg was determined as 92 ± 7% in the assay on Serum Cholesterol [1] (setting [4]), 77 ± 5% in the assay with Serum Cholesterol [1] (setting [5]) and 71 ± 5% with Serum Triglycerides.

For `NS(=O)(=O)Cc1ccc(Cl)cc1` [Compound 22], the response vs control in vivo at 20 mg/kg in the assay on Serum Cholesterol [1] (setting [4]) came out at 94 ± 7%; with Serum Cholesterol [1] (setting [5]) it was 78 ± 8%; in the assay on Serum Triglycerides, 48 ± 4%. The “antihypertriglyceridemic activity (in words)” value with Serum Triglycerides is “equally active with saccharin; also recorded: the most active antihypertriglyceridemics in the series”.

Take `O=C1NS(=O)(=O)c2ccccc21` [Saccharin, reference compound]: the results for the response vs control in vivo at 20 mg/kg in the assay on Serum Cholesterol [1] (setting [4]), in the assay on Serum Cholesterol [1] (setting [5]) and in the assay on Serum Triglycerides were 77 ± 6%, 68 ± 7% and 48 ± 6%, respectively.
